Data set [1] deals with T1, IRAK4 (Homo sapiens (Human), UniProt Q9NWZ3). The data set is described as follows: IRAK4 enzyme assay (mass spectrometry readout). The note with it: human recombinant IRAK4 0.2 nM, 3 mM ATP; geometric mean of at least 2 experiments. Format: biochemical. As to the method: Potency of IRAK4 Inhibitor Compounds in IRAK4 Enzyme Assay
The inhibitory activity of compounds against IRAK4 were determined in an enzymatic assay using mass spectrometry readout. Ten point half-log compound concentration response curves, with a top concentration of 1 μM or 10 μM, were generated from 10 mM stocks of compound solubilized in DMSO using an Echo 655 (Labcyte Inc) and added to 384 well assay plates (Greiner #781280). To the assay plates, 10 μL of human recombinant IRAK4 protein (Life Technologies #PV4002) diluted to a final concentration of 0.2 nM in assay buffer (50 mM Tris-HCl pH 7.4, 10 mM MgCl, 5 mM glutathione, 0.01% BSA, 3 mM ATP) was added. The enzyme was incubated with the compounds at room temperature for 15 minutes before a peptide substrate ([…], Innovagen custom synthesis, 10 mM in DMSO) was added to each well to a final concentration of 10 μM using an Echo 655 (Labcyte Inc). After two hours at room temperature, the reaction was stopped with 65 μL of 0.4% formic acid (Merck #33015). The unphosphorylated and phosphorylated peptide were measured by LC-MS/MS on a Waters TQ-S mass spectrometer. Peaks were integrated using the TargetLynx software and the ratios between phosphorylated and unphosphorylated peptides were calculated. Curves were fitted and compound potencies determined in Genedata Screener 19 (Genedata AG). IC50 values are the geometric mean of at least 2 experiments.

Data set [2] deals with T1, IRAK4. In words: IRAK4 phosphorylation cell assay (IL-1β-stimulated Karpas-299 cells). In kind it is cell-based. The note with it: IRAK4 auto-phosphorylation (pIRAK4 Thr345/Ser346) in IL-1β-stimulated Karpas-299 cells; geometric mean of at least 2 experiments. As to the method: IRAK4 Phosphorylation Cell Assay
The activation of IRAK4 by TLR or IL-1R ligands leads to IRAK4 auto-phosphorylation, which can be prevented by IRAK4 kinase inhibitors. The effect of IRAK4 inhibitor compounds on IRAK4 auto-phosphorylation was assessed in IL-1β-stimulated Karpas-299 cells as a measurement of cellular potency. Karpas-299 cells were cultured in RPMI 1640 (Gibco 61870-010) containing 10% FBS (Gibco #10270). Cells were plated at 2×10^4 cells per well in poly-D-lysine coated 384 well plates (Corning #356663) to which compounds had been added at various concentrations (10 point half log dose response with a final top concentration of 30 μM) using an Echo 655 (Labcyte Inc). Cells were centrifuged (250 g, 4 mins), incubated at 37° C. for 1 h, then stimulated with 22.7 ng/mL recombinant IL-1β (R&D Systems, #201-LB-025) at 37° C. for 10 mins, followed by fixation in 4% paraformaldehyde for 20 mins and permeabilization in ice-cold 70% MeOH in PBS for 30 mins. Cells were washed twice with phosphate-buffered saline (PBS) on a BlueWasher (BlueCatBio) then blocked with PBS containing 10% FBS for 20 mins. Blocking solution was removed with a BlueWasher and cells were stained with anti-pIRAK4 (Thr345/Ser346) (CST, #11927, 1:400) in blocking buffer with 0.05% Tween-20 for 1 h, then washed twice with PBS containing 0.05% Tween-20 on a BlueWasher, followed by staining with a Alexa 647-conjugated secondary anti-rabbit IgG antibody (CST, #4414, 1:2,000) and Hoechst 33342 (Sigma, 1:2,000) in blocking buffer with 0.05% Tween-20 for 30 mins. Finally, the cells were washed twice with PBS containing 0.05% Tween-20 and imaged on an ImageXpress Micro (Molecular Devices) with a 10× air objective using the appropriate filters. Images were analysed in Columbus (PerkinElmer) and the fluorescence intensity per cell from the secondary antibody was quantified. The quantified data were analysed in Genedata Screener 19 (Genedata AG). […] IC50 values are the geometric mean of at least 2 experiments.

Data set [3] can be described thus: Human plasma protein binding, equilibrium dialysis (RED device). In kind it is in vitro ADME. The settings on record: for fraction unbound at 18 h, 5 μM: human, plasma, pH 7.4. The source says: Plasma protein binding may have important implications on the pharmacokinetic behaviour of drugs. This is especially true for highly bound drugs, where the fraction unbound (fu) drug in plasma is an important parameter in the interpretation of in-vivo experiments. Traditionally, there are several different techniques used to determine the extent of drug binding to plasma proteins and equilibrium dialysis is probably the most common.
This method describes our current automated equilibrium dialysis assay in human plasma using the RED (Rapid Equilibrium Dialysis) Device and Hamilton sample handling system, described in WernevikJ et al. (2020) “A Fully Integrated Assay Panel for Early Drug Metabolism and Pharmacokinetics Profiling” Assay. Drug. Dev. Technol 18:157-179; DOI 10.1089/adt.2020.970.
The assay generally runs over three days including delivery of results. The pooled compounds are diluted in plasma to 5 μM and added to the inner chamber of the RED device and a phosphate buffer (pH 7.4) to the surrounding chamber to allow equilibrium dialysis over a semipermeable membrane with a molecular weight cut off at 8 kDa. The 5 μM solutions are also used to establish compound stability in plasma and recovery (mass balance) in the RED devices, with sampling performed at both the 0 and 18 h timepoints. Low recovery indicates binding to the dialysis equipment or solubility issues.
After dialysis for 18 hours, plasma and buffer samples are prepared for analysis by liquid chromatography and mass spectrometry (LC/MSMS). A seven-point calibration curve in plasma, ranging from 1.4 nM to 7 μM, is used to quantify the samples. All samples including the calibration curve, also contain an internal standard (IS) to allow for normalization between variations in injection volume in the UPLC-MS/MS instrumentation.
Three quality controls (QCs) are used in each run. Warfarin with low fu (fu mean ˜1%) is used as a control in each pool. Propranolol (˜30%) and Metoprolol (˜90%) are placed randomly in each run. The controls are monitored in the “Manhattan tool” (Winiwarter et al. (2015) “Time dependent analysis of assay comparability: a novel approach to understand intra-and inter-site variability over time” J. Comput. Aided Mol. Des. 29:795-807; DOI10.1007/s10822-015-9836-5), that defines the acceptance criteria for the QCs as 2.58×standard deviation.
For orientation: In equilibrium dialysis only unbound substance equilibrates across the membrane.

The target in data set [4] is human cKit kinase (Homo sapiens (Human), UniProt P10721). In words: cKit enzyme assay (LANCE, Eurofins CEREP). In kind it is biochemical. The settings on record: human recombinant enzyme, 50 μM ATP; geometric mean of at least n=2, * = single experiment. As to the method: Potency of IRAK4 Inhibitor Compounds in cKit Enzyme Assay
Evaluation of the effects of the IRAK4 inhibitor compounds on the activity of the human cKit kinase quantified by measuring the phosphorylation of the substrate Ulight-TK peptide using a human recombinant enzyme and the LANCE® detection method at Eurofins CEREP, catalog item 3070, SOP no 1C768: The test compound, reference compound or water (control) are mixed with the enzyme (0.38 ng) in a buffer containing 40 mM Hepes/Tris (pH 7.4), 0.8 mM EGTA/Tris, 8 mM MgCl2, 1.6 mM DTT and 0.008% Tween 20. Thereafter, the reaction is initiated by adding 100 nM of the substrate Ulight-TK peptide and 50 μM ATP, and the mixture is incubated for 30 min at room temperature. For control basal measurements, the enzyme is omitted from the reaction mixture. Following incubation, the reaction is stopped by adding 13 mM EDTA. After 5 min, the anti-phopho-PT66 antibody labeled with europium chelate is added. After 60 more min, the fluorescence transfer is measured at lex=337 nm, lem=620 nm and lem=665 nm using a microplate reader (Envision, Perkin Elmer). The enzyme activity is determined by dividing the signal measured at 665 nm by that measured at 620 nm (ratio). The results are expressed as a percent inhibition of the control enzyme activity. The standard inhibitory reference compound is staurosporine, which is tested in each experiment at several concentrations to obtain an inhibition curve from which its IC50 value is calculated.
Data presented are the geometric mean of at least n=2, or as denoted by an*are obtained from a single experiment. […] Kinase selectivity can be a key determinant of clinical utility as off target toxicity can be reduced or eliminated.
For orientation: TR-FRET usually uses a lanthanide donor and a delayed reading to cut background.

Usually IC50 stands for the midpoint of a concentration-inhibition curve. Usually fraction unbound stands for the share of the substance not bound to proteins or other matrix. A low value points to little free substance.

T1 sequence (Q9NWZ3 whole entry): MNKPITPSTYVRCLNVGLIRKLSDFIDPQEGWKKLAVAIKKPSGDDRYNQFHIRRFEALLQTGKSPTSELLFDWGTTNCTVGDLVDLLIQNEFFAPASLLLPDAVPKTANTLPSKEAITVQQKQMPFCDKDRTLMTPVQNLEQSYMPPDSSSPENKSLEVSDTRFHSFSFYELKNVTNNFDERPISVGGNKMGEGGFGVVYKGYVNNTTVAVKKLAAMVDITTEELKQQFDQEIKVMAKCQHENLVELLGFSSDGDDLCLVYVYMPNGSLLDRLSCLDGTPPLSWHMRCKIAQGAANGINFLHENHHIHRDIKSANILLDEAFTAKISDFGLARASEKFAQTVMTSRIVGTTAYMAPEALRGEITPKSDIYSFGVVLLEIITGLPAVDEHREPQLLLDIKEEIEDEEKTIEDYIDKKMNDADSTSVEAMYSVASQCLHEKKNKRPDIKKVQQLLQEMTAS
Chain of human cKit kinase (P10721 26-976): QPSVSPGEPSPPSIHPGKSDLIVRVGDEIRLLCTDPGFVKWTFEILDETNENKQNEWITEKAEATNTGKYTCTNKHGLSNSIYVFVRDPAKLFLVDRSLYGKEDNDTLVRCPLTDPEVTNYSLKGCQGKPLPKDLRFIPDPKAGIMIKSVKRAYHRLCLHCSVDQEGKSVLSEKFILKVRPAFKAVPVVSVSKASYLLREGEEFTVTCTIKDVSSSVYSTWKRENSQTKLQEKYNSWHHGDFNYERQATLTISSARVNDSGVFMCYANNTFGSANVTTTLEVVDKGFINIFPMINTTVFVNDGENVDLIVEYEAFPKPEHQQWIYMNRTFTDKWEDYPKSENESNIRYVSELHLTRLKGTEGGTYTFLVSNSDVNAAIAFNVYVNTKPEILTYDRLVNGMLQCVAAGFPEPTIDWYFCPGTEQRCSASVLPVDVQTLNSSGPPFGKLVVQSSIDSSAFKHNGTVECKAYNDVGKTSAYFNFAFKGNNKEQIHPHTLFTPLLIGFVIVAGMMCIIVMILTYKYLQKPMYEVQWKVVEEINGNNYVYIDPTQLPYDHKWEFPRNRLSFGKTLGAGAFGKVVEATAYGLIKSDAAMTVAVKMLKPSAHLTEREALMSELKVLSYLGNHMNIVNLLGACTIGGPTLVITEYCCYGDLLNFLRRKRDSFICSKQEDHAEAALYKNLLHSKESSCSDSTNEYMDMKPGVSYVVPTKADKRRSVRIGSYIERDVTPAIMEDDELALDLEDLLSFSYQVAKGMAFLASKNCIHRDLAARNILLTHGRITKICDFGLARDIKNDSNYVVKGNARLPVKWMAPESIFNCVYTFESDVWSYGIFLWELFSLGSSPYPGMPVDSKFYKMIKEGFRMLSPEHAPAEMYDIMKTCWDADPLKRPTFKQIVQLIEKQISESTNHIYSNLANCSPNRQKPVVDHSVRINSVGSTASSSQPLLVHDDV

With `COc1cc2nn([C@H]3CC[C@@]4(CC3)COC(=O)N4C)cc2cc1C(=O)Nc1cccn(C)c1=O` [Example 20, 6-Methoxy-N-(1-methyl-2-oxo-1,2-dihydropyridin-3-yl)-2-((5s,8s)-1-methyl-2-oxo-3-oxa-1-azaspiro[4.5]decan-8-yl)-2H-indazole-5-carboxamide], the figures for the IC50 in data set [1] and in data set [2] were 5.6 nM and 128 nM, respectively. In data set [3] (human plasma, 5 μM, dialysis 18 hours, single experiment or average of two or more), the “Hu PPB (% free)” value was found to be 14 % free.

`COc1cc2nn([C@H]3CC[C@H](n4cc(C(C)(C)O)nn4)CC3)cc2cc1C(=O)Nc1cccn(C)c1=O` [Example 30, 2-((1r,4r)-4-(4-(2-Hydroxypropan-2-yl)-1H-1,2,3-triazol-1-yl)cyclohexyl)-6-methoxy-N-(1-methyl-2-oxo-1,2-dihydropyridin-3-yl)-2H-indazole-5-carboxamide]: the results for the IC50 in data set [1], in data set [2] and in data set [4] were 1 nM, 22 nM and 6900 nM, respectively.

Consider `COCCc1ccc(OCC(O)CNC(C)C)cc1` (stereo not drawn) [Metoprolol], for which, in data set [3], the fraction unbound at 18 h, 5 μM is approximately 0.9.

In the case of `CC(C)NCC(O)COc1cccc2ccccc12` (stereo not drawn) [Propranolol], the fraction unbound at 18 h, 5 μM in data set [3] is approximately 0.3. Still for that read-out and setting: in the case of `CC(=O)CC(c1ccccc1)c1c(O)c2ccccc2oc1=O` (stereo not drawn) [Warfarin] it was approximately 0.01.
